In US5856166A, “Streptomyces proteases and methods for improved secretion of recombinantly-expressed proteins” (Cangene Corporation, priority 1994, dated 1999):
“Also recorded” adds a separate entry of the source. Where a SMILES comes first, the peptide text is derived from it. The star is where a group is joined. CH2Cl = ClC*

Tests used:
[1] = molecular target: T1, Tap (tripeptidyl aminopeptidase) (Streptomyces lividans, UniProt Q54410); test: Inactivation of Tap by APACMK assayed with APA-pNA, determination of kinetic constants; type: biochemical, S. lividans 66
T1 construct: An autolytic tripeptide cleavage removing APA after signal peptide removal would yield the N-terminal found for the secreted protease; made in house; host or cells: Streptomyces lividans 66 (wild-type strain, native secreted enzyme purified from the broth)
T1 sequence (Q54410 40-537): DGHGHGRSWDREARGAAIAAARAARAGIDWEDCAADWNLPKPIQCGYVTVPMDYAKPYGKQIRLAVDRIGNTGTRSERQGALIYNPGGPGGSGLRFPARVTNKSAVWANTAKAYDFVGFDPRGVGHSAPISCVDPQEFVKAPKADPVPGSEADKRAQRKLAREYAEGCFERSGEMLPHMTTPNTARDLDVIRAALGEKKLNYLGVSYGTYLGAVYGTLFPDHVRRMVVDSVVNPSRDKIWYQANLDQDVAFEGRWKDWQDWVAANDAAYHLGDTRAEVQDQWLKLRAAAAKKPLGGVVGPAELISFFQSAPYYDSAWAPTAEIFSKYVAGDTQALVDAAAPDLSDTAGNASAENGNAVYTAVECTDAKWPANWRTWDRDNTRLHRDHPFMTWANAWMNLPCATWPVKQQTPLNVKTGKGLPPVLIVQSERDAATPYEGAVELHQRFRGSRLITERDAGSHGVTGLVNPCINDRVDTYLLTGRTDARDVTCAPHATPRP
Procedure: The concentration of Tap in the inactivations was 1.0 uM. The inactivation and assay were conducted as described in Example 8. In FIG. 6, (O)=2.70 uM APACMK; (Δ)=2.16 uM APACMK; (.quadrature.)=1.73 uM APACMK; (*)=1.38 uM APACMK; (+)=No APACMK.
The methods employed are described in Examples 6, 7, and 8.
A stock solution of 10 nM Tap in 100mM Tris-HCl, pH 8.0 was prepared. Serial dilutions of 210 uM, 21 uM, 2.1 uM, 210 nM, 21 nM, and 2.1 nM APACMK (Example 5) were prepared. To the microtiter well, 25 ul of Tap followed by 25 ul of an APACMK dilution or distilled water, for an uninhibited control, were added. The assays were incubated for 20 minutes at 22° C. 50 ul 1.6 mM APA-pNA were added to each well. The absorbance was read at 405 nm then incubated at 37° C. The change in absorbance at 405 nm was read after 15 and 60 minutes of incubation.
A stock solution of 1.1 uM Tap in 50 mM Tris-HCl, pH 8.0 was prepared. APACMK stock solutions of 11 uM, 13.8 uM, 17.3 uM, 21.7 uM, 27.0 uM, 54.0 uM, 108 uM, and 1.08 mM were prepared. The Substrate Solution was 50 mM Tris-HCl, pH 8.0, 0.8 mM APA-pNA. The inactivation was performed by placing 90 ul of Tap […] in a 1.5 ml Eppendorf tube on ice and adding 10 ul of water (uninhibited control) or 10 ul of APACMK. A 10 ul aliquot was removed immediately and was assayed by adding it to a cuvette containing 390 ul Substrate Solution at 22° C. The initial velocity was obtained from the change in absorbance at 405 nm during the first 10 seconds of the assay. Additional aliquots were removed at time points and assayed by the same method. At APACMK concentrations greater than 5.0 uM in the incubation, it was not possible to remove an aliquot from the incubation before 90% inactivation occurred.

[2] = molecular target: T1, Tap (tripeptidyl aminopeptidase); test: Cleavage of GM-CSF by Tap, native gel electrophoresis; type: biochemical, S. lividans 66
Procedure: The assay was performed as described in Example 7. The Tap concentration in the assays was 5 nM. Lane 1=GM-CSF standard; Lane 2=GM-CSF after digestion with Tap in the absence of APACMK; Lanes 3 and 4=150 uM APACMK; Lanes 5 and 6=15 uM APACMK; Lanes 7 and 8=1.5 uM APACMK; Lanes 9 and 10=150 nM APACMK; Lanes 11 and 12=15 nM APACMK; Lanes 13 and 14=1.5 nM APACMK; Lanes 15 and 16=150 pM APACMK.
To 10 ul of rhGM-CSF (10 ug, Cangene) and 20 ul 20 mM Tris-HCl, pH 8.0, 20 ul of Tap were added. The assays were incubated at 37° C. for 2 hrs. 20 ul of 125 mM Tris-HCl, pH 6.8, 0.1% bromophenol blue in 50% aqueous glycerol were added. Products were separated by native gel electrophoresis at constant current on a 17% polyacrylamide gel by a modification of the method of Davies (Davies, 1964) in which the pH of all buffers was modified with H2 SO4. Products were visualized by staining with Coomassie Blue G-250 (see FIG. 1A).
A stock solution of 10 nM Tap in 20 mM Tris-HCl, pH 8.0 was prepared. Serial dilutions of 210 uM, 21 uM, 2.1 uM, 210 nM, 21 nM, and 2.1 nM APACMK (Example 5) were prepared. To 20 ul Tap, 20 ul of an APACMK dilution (or water for an uninhibited enzyme control) were added and incubated at 22° C. for 30 minutes. 10 ul of GM-CSF (1 ug/ul, Cangene) were added and incubated at 37° C. for 2 hours. Products were analyzed by native gel electrophoresis as described in Example 2.

Tap = molecular target: T2, Tap (Streptomyces lividans, UniProt Q54410); test: Inhibition of Tap by APACMK during fermentation of S. lividans (GM-CSF(-3) formation); type: cell-based, S. lividans 66; conditions: 10 uM APACMK added after 25 hours; sampled to 48 hours
T2 construct: 100 ml of media was inoculated in 500 ml baffle-bottom flasks with 100 ul of S. lividans 66 working seed bank material; endogenous in cells; host or cells: Streptomyces lividans 66
T2 sequence (Q54410 40-537): T1 sequence (Q54410 40-537)
Procedure: When APACMK and GM-CSF were added to the protease-containing broth from S. lividans fermentations, the formation of the GM-CSF(-3) degradation product was inhibited. Lane 1=Standard containing GM-CSF and GM-CSF(-3). Lanes 2-6 show a fermentation in the presence of 10 uM APACMK. Lane 2=25 hours growth; Lane 3=27 hours growth; Lane 4=29 hours growth; Lane 5=31 hours growth; Lane 6=48 hours growth. Lanes 7-11 show a fermentation without APACMK. Lane 7=25 hours growth; Lane 8=27 hours growth; Lane 9=29 hours growth; Lane 10=31 hours growth; Lane 11=48 hours growth. GM-CSF degradation was analyzed by native gel electrophoresis.
(§1) 100 ml of media was inoculated in 500 ml baffle-bottom flasks with 100 ul of S. lividans 66 working seed bank material. The cultures were grown in a New Brunswick gyratory incubator at 32° C. and 240 rpm. The cultures were sampled at 25, 27, 29, 31, and 48 hours post-inoculation and analyzed by native gel electrophoresis (see FIG. 7). Following removal of the 25 hour sample, 100 mM APACMK in sterile water were added to yield a final concentration of 10 uM. A control flask without APACMK was retained.

S. lividans 66 = test: Cell growth of S. lividans fermentation in the presence of APACMK; type: cell-based; conditions: 10 uM APACMK
Procedure: as §1

[3] = molecular target: T1, Tap (tripeptidyl aminopeptidase); test: Inhibition of TAP in the APA-pNA assay (protease inhibitor survey, Table I); type: biochemical, S. lividans 66
Procedure: The protease and inhibitor were preincubated for 15 minutes at 22° C. Substrate was added and the mixture was incubated at 37° C. Activity was measured by monitoring the change in absorbance at λ=405 nm.
The assay was conducted in a 96 well microtiter plate. To each well in the assay, 50 ul 100 mM Tris-HCl, pH 8.0, were added followed by 25 ul 3.2 mM APA-pNA. 25 ul of Tap were added to the wells and the absorbance was read at 405 nm. The assays were incubated at 37° C. for 2 hours. The absorbance was read at 405 nm. The activity (release of p-nitroaniline) was calculated from the change in absorbance.

[4] = molecular target: T1, Tap (tripeptidyl aminopeptidase); test: Cleavage of IL-3 by Tap after PMSF treatment, isoelectric focusing; type: biochemical, S. lividans 66; conditions: Tap preincubated with PMSF 30 minutes at 22° C.; incubation up to 4 hours at 37° C.
Procedure: Lanes 1-4 show the incubation of IL-3 with TAP-S that has been treated with PMSF. Lane 1=4 hrs; Lane 2=2 hours; Lane 3=1 hr.; Lane 4=0 hours. Lanes 5-8 show the incubation of IL-3 with uninhibited Tap. Lane 5=4 hrs.; Lane 6=2 hrs.; Lane 7=1 hrs.; Lane 8=0 hrs. Lane 9 is a human carbonic anhydrase marker, pI=7.4. Lane 10 contains pI markers. […] The enzyme is not affected by sulfhydryl reagents, chelators or aspartyl protease inhibitors (Table I).
To 50 ul 20 mM Tris-HCl, pH 8.0, 40 ul rhIL-3 (2.5 ug/ul, Cangene) was added followed by 10 ul Tap. The assays were incubated at 37° C.. 25 ul aliquots were withdrawn at the desired time points and frozen on crushed dry ice. The products were separated by isoelectric focusing from pH 3-10 using Pharmalyte 3-10 (Pharmacia) ampholytes (FIG. 4). Products were visualized by staining with Coomassie Blue G-250.
Tap stock (Example 1) was diluted 100-fold with 20 mM Tris-HCl, pH 8.0. A fresh solution of 80 mM PMSF was prepared in isopropanol (iPrOH). A Stock Buffer of 20 mM Tris-HCl, pH 8.0 was prepared. Four preincubations were prepared as follows.
These were incubated at 22° C. for 30 minutes. When the preincubation was complete, 40 ul rhIL-3 (2.5 ug/ul, Cangene) were added and incubation was initiated at 37° C.. […] When the sampling process was complete, the products were analyzed by isoelectric focusing from pH 3-10 (Example 2).

[5] = inactivation of Tap, APA-pNA as substrate

Structure (SMILES)	effect on release of p-nitroaniline from APA-pNA by Tap [1]	inhibition at 2.7 µM ([1]; 0.1 h, within 6 minutes at 0° C., inhibitor concentration 2.7 uM, inhibitor/enzyme molar ratio 2.7)	Ki [1, 5]	kinact [1, 5]	effect on cleavage of GM-CSF by Tap [2]	formation of GM-CSF(-3) degradation product in S. lividans fermentation (Tap)	cell growth during fermentation (S. lividans 66)	effect on cleavage of APA-pNA by Tap ([3]; Tap treated with PMSF)	Residual Activity ([3]; inhibitor 1.6 mM, preincubated 15 minutes at 22° C., substrate APA-pNA, enzyme only = 100)	effect on cleavage of IL-3 by Tap [4]
C[C@H](N)C(=O)N1CCC[C@H]1C(=O)N[C@@H](C)C(=O)CCl [APACMK, L-alanyl-L-prolyl-L-alanine chloromethylketone] (H-Ala-Pro-Ala-CH2Cl)	stopped the release of p-nitroaniline; also recorded: inactivated Tap at very low concentrations	> 99%	3.3 µM	0.00233 s⁻¹	stopped the cleavage of GM-CSF; also recorded: inactivated Tap at very low concentrations	prevented cleavage of GM-CSF; also recorded: inhibited; also recorded: significantly reduced formation of GM-CSF(-3)	did not significantly retard the rate of cell growth; also recorded: did not inhibit cell growth			
O=S(=O)(F)Cc1ccccc1 [PMSF, phenylmethanesulfonyl fluoride]					inhibited			inhibited	7	inhibited; also recorded: intact IL-3 is clearly detected after 4 hours
